One assay has as its system Porcine Parvovirus (PPV). The assay is described as follows: Inactivation of porcine parvovirus (PPV), TCID50 titer on PT-1 cells. The settings on record: dropped from 7.1 logs, 3 hours, room temperature, dimer 0.1%, detergent = 1% Tween 80, 0.3% TNBP (FIG. 3). The format is cell-based. Here is the method:
PPV is a non-enveloped virus; it is known to be inactivated with ethyleneimine dimer. The ability of ethyleneimine dimer to inactivate PPV in the presence of a solvent-detergent mixture was determined as follows.
A detergent stock solution (1% Tween 80, 0.3% TNBP in 0.1 M MOPS, 50 mM NaCl, pH 7.0) was prepared. A 5% dimer stock solution was prepared with 250 μl of 0.1 M MOPS, NaCl 50 mM, pH 7.0, and 12.5 μl dimer (ethyleneimine dimer, Dalton Chemical Laboratories, Inc., lot number LB-4-69A-03319). In addition, a quenching solution with a sodium thiosulphate concentration of 0.1M in 0.1 M MOPS, pH 7.0, was prepared.
(a) 9 ml 0.1 M MOPS, 50 mM NaCl, pH 7.0 was combined with 200 μl dimer stock solution. 1.0 ml PPV (PPV stock #1 filtered through 0.22μ filter) was added. The concentration of dimer in the resulting solution was 0.1%. The mixture was incubated at room temperature for a given period of time (0-3 hours). After the given time period, 1.85 ml of the solution was removed, and 0.15 ml quenching solution was added. Quenching occurred over a period of 30 minutes at room temperature. The concentration of sodium thiosulphate in the final solution was […].
(b) 9 ml detergent stock solution was combined with 1.0 ml PPV. The mixture was incubated for 0-3 hours at room temperature. A 2 ml aliquot was removed at each time point for assay. […]

The next assay relates to bacteriophage MS2. The assay is described as follows: Kinetics of bacteriophage MS2 infectivity inactivation. The format is cell-based. The following applies: 1 mM trimer, 23° C., pH 7.13, after 30 minutes of incubation (FIG. 1). Here is the method: Ethyleneimine trimer is known to inactivate the infectivity of bacteriophage MS2. The ability of the trimer to inactivate the infectivity of MS2 in the presence of TNBP and Tween 80 was determined as follows.
A stock of bacteriophage MS2 (ATCC number 15597-B1) was prepared according to conventional procedures (D. L. Rogerson and G. Rushizky, Analytical Biochemistry 67: 675-678 (1975)). Purification was performed by sedimentation of bacteriophage in the presence of 6% polyethylene glycol (PEG 8000, USB) as described in K. Yamamoto and B. Alberts, Virology 40: 734-744 (1970).
Purified phage were suspended in 0.15 M NaCl solution (final bacteriophage stock titer was 5×10^13 pfu/ml) and stored at 4° C. The infectivity (titer) of phage suspension was determined by conventional bilayer technique on LB agar with the F^+ strain of Escherichia coli C-3000 (ATCC number 15597).
Ethyleneimine trimer was prepared as described above. […]
Aliquots of the reaction mixture incubated at 23° C. were taken at five defined time intervals. MS2 infectivity inactivation (log S0/St, where S0 and St are the infectivity (titer) of the suspension before and t min after the start of inactivation) was determined at these five points.

Turning to `NCCN1CC1` [dimer, ethyleneimine dimer], the “titer of the virus (TCID50) after treatment” value with Porcine Parvovirus (PPV) was 3.2 logs.
Take `NCCNCCN1CC1` [trimer, ethyleneimine trimer]: the “MS2 infectivity inactivation (log S0/St), trimer alone compared with trimer plus solvent-detergent” value in the assay with bacteriophage MS2 was “essentially the same infectivity inactivation”.

The record behind these values is patent US6774123B1, “Methods and compositions for inactivating viruses” (priority 1998, dated 2004).
